For data set [1], the system named is acetic acid-induced colitis. As to conditions: rat, in vivo; cited from earlier work.
Data set [2] is described as follows: Compound-plasma binding, rodent plasma. To be noted: 37° C., 4 h, 3,000 MWCO filter. In kind it is in vitro ADME. From the text:
(§1) Each sample was then passed through a Millipore Amicon Ultra regenerated cellulose filter (3,000 MWCO).

Data set [3] in a line: Octanol-water partition, shake flask (log Papp). In kind it is physicochemical. To be noted: pH 7.4, Tris buffer. The protocol:
The partition values between octanol and water (at pH 7.4, Tris buffer) were determined using a “shake flask” direct method of measuring log Papp values (Sangster et al., Octanol-Water Partition Coefficients: Fundamentals and Physical Chemistry; John Wiley and Sons: West Sussex, England, 1997; Vol. 2). The fraction of compound in the octanol is then expressed as log Papp. […] This is likely due to the presence of the aromatic nitrogen, a moderately good hydrogen bond accepter, on the DFT analogs.

Data set [4] is described as follows: Compound-plasma binding, primate plasma. In kind it is in vitro ADME. To be noted: 37° C., 4 h, 3,000 MWCO filter.
From the text: as §1

Data set [5] deals with urinary Kim-1 excretion. As to conditions: for survival of dosing period: po twice daily 237 μmol/kg/dose (474 μmol/kg/d), up to 7 d, rats with normal iron stores. The protocol: The compounds were administered to the rats po as their monosodium salts, prepared as described above, twice daily at a dose of 237 μmol/kg/dose (474 μmol/kg/d) for up to 7 d. The studies were performed on rats with normal iron stores. The rats were fasted overnight and were given the first dose of the compound first thing in the morning. The rats were fed ˜3 h post-dose and had access to food for ˜5 h before being fasted overnight.
The rats were housed in individual metabolic cages. […] A baseline (day 0) urine sample was collected and assessed for its Kim-1 content; each animal served as its own control. The urine was collected chilled as previously described (Bergeron et al., “Desferrithiocin Analog Iron Chelators: Iron Clearing Efficiency, Tissue Distribution, and Renal Toxicity.” Biometals, 2011, 24, 239-258).
The chilled urine was collected, vortexed, and warmed to room temperature; any sediment in the samples was allowed to settle. Kim-1 content was assessed using a Rat Kim-1 Rapid Test Kit according to the manufacturer's instructions. The result was read using a ReaScan Test Reader. […] Data are presented as the mean±the standard error of the mean; p-values were generated via a one-tailed Student's t-test in which the inequality of variances was assumed; and a p-value of <0.05 was considered significant.
Assessment of chelator-induced impaired renal function has traditionally relied on the detection of a rise in blood urea nitrogen (BUN) and/or serum creatinine (SCr). However, because of the functional reserve of the kidney, these parameters are often unreliable indicators of acute kidney injury; the ultimate answer requires histopathology. […] BioAssay Works has recently developed RenaStick, a direct lateral flow immunochromato-graphic assay, which allows for the rapid detection (less than 30 minutes) and quantitation of urinary Kim-1 (rat) or KIM-1 (human) excretion (Vaidya et al., “A Rapid Urine Test for Early Detection of Kidney Injury.” Kidney. Int. 2009, 76, 108-114). […] The studies were performed on rats with normal iron stores; each animal served as their own control.

A short description of data set [6]: Job's plot stoichiometry of Fe(III) complexes. As to conditions: [DFT analog]+[Fe(III)]=1.0 mM, Tris-HCl pH 7.4; theoretical 0.667 for 2:1. In kind it is binding. The procedure:
Solutions containing DFT analog/Fe(III) at different ratios were prepared such that [DFT analog]+[Fe(III)]=1.0 mM in Tris-HCl buffer at pH 7.4. The theoretical mole fraction maximum for a 2:1 DFT analog:Fe complex is 0.667 (indicated by an arrow).
In each instance, the DFT analogs formed 2:1 complexes with Fe(III). […] A 100 mM Tris HCl buffer was used to maintain the pH at 7.4. Solutions containing different DFT analog/Fe(III) ratios were prepared by mixing appropriate volumes of 1.0 mM DFT analog solution and 1.0 mM Fe(III)-nitriloacetate (NTA) in Tris-HCl buffer. The 1.0 mM Fe(III)-NTA solution was prepared immediately prior to use by dilution of a 41.6 mM Fe(III)-NTA stock solution with the Tris HCl buffer, whereas the DFT analog stock solution was prepared by dissolving the DFT analog as its monosodium salt in Tris HCl buffer at pH 7.4. The Fe(III)-NTA stock solution was prepared by mixing equal volumes of […] of FeCl3 and 180 mM trisodium NTA. The iron content of the Fe(III)-NTA solution was verified by atomic absorption spectrophotometry (AAS).

Data set [7] deals with iron excretion. In words: Iron-clearing efficiency in iron-overloaded primates (fecal and urine samples). In kind it is in vivo, Cebus apella monkeys. As to conditions: primates po / rodents po. The procedure:
At least 20 half-lives, 60 days (Wood et al., “The Metabolism of Iron-Dextran Given As a Total-Dose Infusion to Iron Deficient Jamaican Subjects.” Br. J. Hamaetol. 1968, 14, 119-129), elapsed before any of the animals were used in experiments evaluating iron-chelating agents.
Briefly, the collections began 4 days prior to the administration of the test compound and continued for an additional 5 days after the compound was given. Iron concentrations were determined by flame absorption spectroscopy as presented in other publications (Bergeron et al., “A Comparative Evaluation of Iron Clearance Models.” Ann. N.Y. Acad. Sci. 1990, 612, 378-393; Bergeron et al., “Synthesis and Biological Evaluation of Naphthyldesferrithiocin Iron Chelators.” J. Med. Chem. 1996, 39, 1575-1581).
In the text below, the term “iron-clearing efficiency” (ICE) is used as a measure of the amount of iron excretion induced by a chelator. The ICE, expressed as a percent, is calculated as (compound-induced iron excretion/theoretical iron excretion)×100. To illustrate, the theoretical iron excretion after administration of one millimole of desferrioxamine B mesylate (DFO) (FIG. 3), a hexadentate chelator that forms a 1:1 complex with Fe(III), is one milli-g-atom of iron. Two millimoles of desferrithiocin (DFT) (Table 1), a tridentate iron chelator that forms a 2:1 complex with Fe(III), are required for the theoretical excretion of one milli-g-atom of iron. The theoretical iron outputs of the chelators were generated on the basis of a 2:1 compound:iron complex. The efficiencies in the rats and monkeys were calculated as set forth elsewhere (Bergeron et al., “Effects of C-4 Stereochemistry and C-4′ Hydroxylation on the Iron Clearing Efficiency and Toxicity of Desferrithiocin Analogs.” J. Med. Chem. 1999, 42, 2432-2440; Bergeron et al., “HBED: A Potential Alternative to Deferoxamine for Iron-Chelating Therapy.” Blood 1998, 91, 1446-1452).

For data set [8], the system named is iron excretion. To be noted: po 150 μmol/kg, cited from earlier work.
Data set [9] concerns iron excretion. As to conditions: po 150 μmol/kg, cited from earlier work. The source holds these as a separate data set.
For data set [10] the following is noted: oral; cited from earlier work.
For data set [11] the following is noted: po once daily 384 μmol/kg/d (100 mg/kg/d), cited from earlier work.
The subject of data set [12] is urinary Kim-1 excretion. As to conditions: cited from earlier work; for urinary Kim-1: 237 μmol/kg twice daily.
For data set [13] the following is noted: administered twice daily; cited from earlier work.
The mark [14] stands for this setting: po twice daily 237 μmol/kg/dose × 7 d.
Setting [15] is: day 8, after 237 μmol/kg twice daily × 7 d.

Counter-ions that a name gives are not always drawn. Like-named read-outs stand apart in the source and are kept apart here.

`CC(=O)N(O)CCCCCNC(=O)CCC(=O)N(O)CCCCCNC(=O)CCC(=O)N(O)CCCCCN` [DFO, desferrioxamine B mesylate]: in data set [1], the “effect on acetic acid-induced colitis” value is given as “prevent acetic acid-induced colitis”.
With `COCCOCCOc1ccnc(C2=N[C@@](C)(C(=O)O)CS2)c1O` [I-3, (S)-4,5-Dihydro-2-[3-hydroxy-4-(3,6-dioxaheptyloxy)-2-pyridinyl]-4-methyl-4-thiazolecarboxylic Acid], in data set [2], the “binding of the compound to plasma” value is given as “little, if any, binding”. The LogPapp in data set [3] is given as −1.38. For the same compound, the “binding of the compound to plasma” value in [4] is recorded as “little, if any, binding”. Also, in the data set with urinary Kim-1 excretion [5], the “survival of dosing period” value is reported as “All of the animals survived the compound dosing regimen”. In addition, in the data set with urinary Kim-1 excretion [5] (setting [14]), the “BUN and SCr” value was “well within the normal range”; the “urinary Kim-1 excretion versus baseline (day 0)” value was “remained within error of that of the baseline (day 0) levels”. In addition, the “renal toxicity (Kim-1, BUN, SCr), summary” value with urinary Kim-1 excretion [5] (rat, in vivo) is reported as “little to no impact on renal function”. Further, in data set [6], the “observed mole fraction maximum in Job's plot” value was 0.677.
Take `C[C@]1(C(=O)O)CSC(c2ncccc2O)=N1` [compound 1, desferrithiocin]: the “Performance ratio (PR), mean ICEprimates/ICErodents” value in the data set on iron excretion [7] is 2.9. For the same compound, the “Rodent Iron-Clearing Efficiency (%)” value with iron excretion [8] (solubilized in 40% Cremophor RH-40/water) is 5.5±3.2%. In the data set with iron excretion [8] (rodents, 40% Cremophor RH-40/water, bile/urine), the “relative percentages of the iron excreted in the bile and urine” value is reported as 93/7. In data set [3], this compound yielded a LogPapp of −1.77. Besides, the “Primate Iron-Clearing Efficiency (%)” value in the data set with iron excretion [9] is listed as 16.1±8.5%. Moreover, the “relative percentages of the iron excreted in the feces and urine” value with iron excretion [9] (primates, feces/urine) is 78/22. The values for the nephrotoxicity result in data set [10] and in data set [11] were “severe nephrotoxicity” and “severely nephrotoxic”, respectively. Besides, the mortality result in data set [11] (planned 10-d, rats with normal iron stores) is listed as “All of the rats were dead by day 5”. The “fold increase of urinary Kim-1 over baseline” value in the data set with urinary Kim-1 excretion [5] (after one day, 237 μmol/kg/dose twice daily po) is on record as roughly 10 fold. Moreover, in the data set with urinary Kim-1 excretion [5], the “survival of dosing period” value is listed as “None of the rats survived”. The same compound returned an SCr in the data set with urinary Kim-1 excretion [5] (two moribund rats sacrificed after four days of 237 μmol/kg/dose twice daily, normal 0.4-1) of 5.1 ± 0.3 mg/dL. Besides, the BUN with urinary Kim-1 excretion [5] (two moribund rats sacrificed after four days of 237 μmol/kg/dose twice daily, normal 9-30) worked out at 139 ± 8 mg/dL.
On to `C[C@]1(C(=O)O)CSC(c2ccc(O)cc2O)=N1` [compound 3], for which the “urinary Kim-1” value with urinary Kim-1 excretion [12] (after three days) was 69±47 ng/kg/24 h. Also, in the data set with urinary Kim-1 excretion [12] (setting [15]), the BUN is 32 ± 13 mg/dL and the SCr was 1.3 ± 1.0 mg/dL. Besides, the “urinary Kim-1” value in the data set on urinary Kim-1 excretion [12] (end of the 7 d dosing period) is listed as 189±187 ng/kg/24 h. Besides, in the data set on urinary Kim-1 excretion [12] (rats), the “renal toxicity (Kim-1, BUN, SCr), summary” value is given as “some nephrotoxicity”. This compound also gave a LogPapp in data set [3] of −1.05. In addition, the nephrotoxicity in patients result in [13] is listed as “induced proximal tubule nephrotoxicity”.
